Experiment in all cases: growth of human tumour cells (NCI), 48 h
Assay [1] deals with TK-10 renal.
Assay [2] deals with UACC-257 melanoma.
Assay [3] deals with M14 melanoma.
Assay [4] has as its system HCT-116 colon.
Assay [5] has as its system HOP-62 NSCLC.
The subject of assay [6] is 786-0 renal.
The test system of assay [7] is COLO 205 colon.
Assay [8] has as its system HS 578T breast.
The subject of assay [9] is SK-MEL-5 melanoma.
For assay [10], the system named is HOP-92 NSCLC.
Assay [11] has as its system MCF7 breast.
In assay [12] the test system is IGROV1 ovarian.
The subject of assay [13] is BT-549 breast.

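The compound was tested at five concentrations on cells cultured in 96-well plates, with a 48-hour exposure period. At the TGI there is no net growth.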

Regarding `CC1(C)[C@@H](Cn2ccc(=O)[nH]c2=O)CC[C@@]1(C)CO`, the TGI in [1], in [2], in assay [3], in assay [4], in assay [5] and in [6] was more than 100 µM in each case. In addition, the TGI in assay [7], in assay [8], in assay [9] and in assay [10] was more than 100 µM each time.
For `[N-]=[N+]=Nc1c([N+](=O)[O-])c(=O)n(-c2ccccc2)c2ccccc12`, the TGI in assay [1] is 44.2 µM; in [2], more than 100 µM; in [3], 73.1 µM; in assay [4] it was 51.3 µM; in assay [5], more than 100 µM; in assay [6], 43.4 µM. Besides, the TGI in assay [7] was determined as 42.3 µM; in [8] it was 72.1 µM; in [11] it was 67 µM; in [12] it was 88.4 µM; in assay [9] it was 59.5 µM; in [10], 86.9 µM.
For the compound `CN1CCc2c([nH]c3ccccc23)C1`, the TGI in [13], in assay [1], in assay [2], in [3], in [4] and in [5] was more than 100 µM in each case. The TGI in assay [6], in [7], in assay [8], in [11], in assay [12] and in [9] was more than 100 µM each time.
As for `O=[N+]([O-])c1ccc2[nH]c(=S)[nH]c(=S)c2c1`, the TGI in [1], in assay [2], in assay [3], in assay [4], in [5] and in [6] was more than 100 µM each time. Also, the TGI in assay [7], in assay [8], in [11], in assay [12], in assay [9] and in assay [10] was more than 100 µM in each case.
As to `CO[C@@]12C[C@@H](C)C3=CCC(C)=C3CC1=C(C)C(=O)O2`, the TGI in assay [13], in assay [1], in [2], in [3], in assay [4] and in assay [6] was more than 100 µM in each case. The TGI in assay [7], in assay [8], in assay [12], in assay [9] and in [10] was more than 100 µM throughout.
For `Cc1ccc(-n2cnc(C(=N)C#N)c2N)cc1`, the TGI in assay [13], in assay [1], in [2], in [3], in [4] and in assay [5] was more than 100 µM each time. Also, the TGI in assay [6], in assay [7], in assay [8], in assay [11], in assay [12] and in assay [9] was more than 100 µM in each case.
On to `O=[N+]([O-])c1ccc(CN(CCCl)OCCCl)cc1`, for which the TGI in [13], in assay [1], in assay [2], in assay [3], in assay [4] and in [5] was more than 100 µM in each case. In addition, the TGI in assay [6], in [7], in assay [8], in assay [11], in [12] and in [9] was more than 100 µM each time.
As to `CCCNC(=O)NNC(=O)c1c[nH]c2nc(C)ccc2c1=O`, the TGI in assay [13], in [1], in [2], in [3], in assay [4] and in [5] was more than 100 µM throughout. The TGI in [6], in assay [7], in assay [8], in assay [11], in assay [12] and in assay [9] was more than 100 µM each time.
On to `CCCC(=O)NC(NC1CCCCC1)(C(=O)OCC)C(F)(F)F` (centres undefined), for which the TGI in assay [1], in assay [2], in assay [3], in [4], in assay [5] and in [6] was more than 100 µM throughout. The TGI in [8], in assay [11], in assay [12], in [9] and in assay [10] was more than 100 µM in each case.
Turning to `COC[C@@H](N=CC(C)(C)C)C(C)C`, the TGI in assay [1], in assay [2], in assay [3], in assay [4], in assay [5] and in [6] was more than 100 µM throughout. The TGI in assay [7], in [8], in assay [11], in [12], in [9] and in [10] was more than 100 µM throughout.
Take `BrC1=C(Br)C2(SCCS2)[C@H]2C[C@@H]1c1ccccc12`: the TGI in assay [13], in assay [1], in [2], in [3], in assay [4] and in assay [5] was more than 100 µM each time. Also, the TGI in assay [6] was more than 100 µM; in assay [7] it was more than 100 µM; in assay [11], more than 100 µM; in assay [12], more than 100 µM; in [9] it was more than 41.6 µM; in assay [10], more than 100 µM.
As to `CCN(CC)Cc1ccc(C(=S)Nc2ccc(Cl)cc2)s1`, the TGI is 19.7 µM in [13]; 18.1 µM in [2]; 14.2 µM in [3]; 22.9 µM in assay [4]; 32.1 µM in assay [5]; 26.4 µM in [6]. Further, the TGI in assay [7] was 5.2 µM; in [8], 32.5 µM; in assay [11], 25.5 µM; in assay [12], 24.1 µM; in assay [9] it was 16.9 µM.

(Values after PubChem BioAssay (NCI).)
